# Experimental data from US4172943A, “(8-Substituted-10-hydroxy-5,5-dimethyl-1,2 ,3,4-tetrahydro-5H-(1)benzopyrano(4,3-C)pyridin-2-yl)acetyl ureas and derivatives” (Abbott Laboratories, priority 1978, dated 1979).
# Key:
# [1] = test system: acetic acid writhing response; test: Mouse (Acetic Acid) Writhing Test; assay type: in vivo, female, ICR mice; conditions: for Activity % Inhibition / Ave. Number of Writhes (20 min.): p.o., one hour before acetic acid; for Ave. Number of Writhes (20 min.): controls 55.0
# Method: In this test, groups of 5 female, ICR mice (Schmidt) weighing 19-25 g. were orally (p.o.) gavaged with compound (V) one hour prior to the intraperitoneal injection of 0.4 ml. of acetic acid 0.5% (v/v). Five minutes after the acid injection, the number of writhing responses over a 20 minute period were counted. One group received an oral dose of vehicle only to serve as controls. Activity was determined as the percent difference (inhibition) between the average number of writhes for the test groups as compared to the controls. An ED50 value representing the dose producing a 50% inhibition of the writhing response was calculated by a linear regression program.
# [2] = test system: response time to radiated heat focused on the tail (rat tail flick); test: Rat Tail Flick Test; assay type: in vivo, male, Sprague-Dawley rats; conditions: for average response time, 1 Hr. / Activity - Increase in Response Time (2 Hrs.) / average response time, 2 Hrs. / average response time, 3 Hrs.: p.o.
# Method: In this test, groups of 10 male, Sprague-Dawley rats, weighing 142-170 g. were orally (p.o.) gavaged with compound (V) after the average normal response time to radiated heat focused on the tail had been established by two trials. Response times were recorded hourly for 3 hours after the administration of the compound. The activity was determined as the percent increase in response time over the average normal response for the response for the respective group. An ED50 value representing the dose producing a 50% increase in average response time was calculated by a linear regression program.
# [3] = test system: methamphetamine-induced hyperactivity in rats; test: Rat Desoxyn Antagonism Test; assay type: in vivo; conditions: methamphetamine 1 mg./kg., i.p.
# Method: In this test, the antagonism or potentiation of methamphetamine-induced hyperactivity in rats was evaluated in motor activity chambers equipped with photocells (Lehigh Valley, Model #1497). Groups of rats were premedicated with Compound (V) and then administered methamphetamine (1 mg./kg., i.p.). One rat was placed in each chamber and three rats were used per test dose. Effect was recorded as percent change in counts from the photocells compared to methamphetamine-treated controls.
structure (smiles),measurement,setting,value
"CC(CCCc1ccc(F)cc1)c1cc(O)c2c(c1)OC(C)(C)C1=C2CN(CC(=O)NC(N)=O)CC1 (centres unmarked) [Compound V, {{8-[5-(4-Fluorophenyl)-2-pentyl]-10-hydroxy-5,5-dimethyl-1,2,3,4-tetrahydro-5H-[1]benzopyrano[4,3-c]pyridin-2-yl}acetyl}urea]",Activity % Inhibition,[1]; 0.5 mg./kg.,48.4%
same,Ave. Number of Writhes (20 min.),[1]; 0.5 mg./kg.,28.4
same,Activity % Inhibition,[1]; 1.0 mg./kg.,50.2%
same,Ave. Number of Writhes (20 min.),[1]; 1.0 mg./kg.,27.4
same,Activity % Inhibition,[1]; 2.0 mg./kg.,72.4%
same,Ave. Number of Writhes (20 min.),[1]; 2.0 mg./kg.,15.2
same,Activity % Inhibition,[1]; 4.0 mg./kg.,89.1%
same,Ave. Number of Writhes (20 min.),[1]; 4.0 mg./kg.,6.0
same,ED50,"[1]; Mus musculus, po, dose producing 50% inhibition of writhing response, linear regression, (0.4, 1.0) printed after value",0.7 mg/kg
same,"average response time, 1 Hr.","[2]; 1.0 mg./kg., Normal 8.03",9.03 s
same,Activity - Increase in Response Time (2 Hrs.),"[2]; 1.0 mg./kg., 2 hrs",30.0%
same,"average response time, 2 Hrs.","[2]; 1.0 mg./kg., 2 hrs, Normal 8.03",10.44 s
same,"average response time, 3 Hrs.","[2]; 1.0 mg./kg., Normal 8.03",11.22 s
same,"average response time, 1 Hr.","[2]; 2.0 mg./kg., Normal 6.80",8.92 s
same,Activity - Increase in Response Time (2 Hrs.),"[2]; 2.0 mg./kg., 2 hrs",56.0%
same,"average response time, 2 Hrs.","[2]; 2.0 mg./kg., 2 hrs, Normal 6.80",10.61 s
same,"average response time, 3 Hrs.","[2]; 2.0 mg./kg., Normal 6.80",10.99 s
same,"average response time, 1 Hr.","[2]; 4.0 mg./kg., Normal 8.30",11.13 s
same,Activity - Increase in Response Time (2 Hrs.),"[2]; 4.0 mg./kg., 2 hrs",95.2%
same,"average response time, 2 Hrs.","[2]; 4.0 mg./kg., 2 hrs, Normal 8.30",16.20 s
same,"average response time, 3 Hrs.","[2]; 4.0 mg./kg., Normal 8.30, average includes maximum values (30 seconds cut-off time)",16.98 s
same,"average response time, 1 Hr.","[2]; 8.0 mg./kg., Normal 7.97, average includes maximum values (30 seconds cut-off time)",13.63 s
same,Activity - Increase in Response Time (2 Hrs.),"[2]; 8.0 mg./kg., 2 hrs",98.6%
same,"average response time, 2 Hrs.","[2]; 8.0 mg./kg., 2 hrs, Normal 7.97, average includes maximum values (30 seconds cut-off time)",15.83 s
same,"average response time, 3 Hrs.","[2]; 8.0 mg./kg., Normal 7.97",14.32 s
same,ED50,"[2]; Rattus norvegicus, po, 2 hrs, dose producing 50% increase in average response time, linear regression, (0.02, 3.19) printed after value",1.6 mg/kg
same,% Decreased Activity Over Control,[3]; oral dose 5 mg./kg.,75%
same,% Decreased Activity Over Control,[3]; oral dose 20 mg./kg.,93%
same,% Decreased Activity Over Control,[3]; oral dose 80 mg./kg.,84%
